In brackets after ≈: the same amount, converted by molar mass.
Legend:
[1] = tested on: Staphylococcus aureus-SMITH (GC 4543); test: acute lethal infection in mice; format: in vivo; conditions: acute lethal infection, female CD-1 mice, intraperitoneal challenge, intravenous 30 min. after infection, 7 day survival
Summary of the method: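 Female CD-1 mice (20±2 g) got an intraperitoneal bacterial challenge lethal to untreated controls within 24–48 hr. Compound was dosed intravenously 30 min after infection, five mice per dose. ED50 was calculated from 7-day survival pooled across 3 tests.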

Streptococcus sp. = test: in vitro antibacterial evaluation, MIC by broth dilution; format: cell-based; conditions: broth dilution, 18 hours at 35° C.; for MIC Streptococcus pneumoniae (ATCC 6301): strain ATCC 6301; for MIC Streptococcus pneumoniae (GC 1894): strain GC 1894; for MIC Streptococcus pyogenes (GC 4563): strain GC 4563; for MIC Streptococcus agalactiae (GC 4564): strain GC 4564; for MIC Streptococcus pneumoniae (GC 4565): strain GC 4565
Summary of the method: (§1)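 Step 1: dilute antibiotic across 64-0.06 μg/mL in Muller-Hinton II […]. Step 2: inoculate at 5×10^5 CFU/mL.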

Enterococcus sp. = test: as above; format: cell-based; conditions: broth dilution, 18 hours at 35° C.; for MIC Enterococcus faecalis (ATCC 29212): strain ATCC 29212; for MIC Enterococcus faecalis (GC 2242): strain GC 2242; for MIC Enterococcus faecium (GC 2243): strain GC 2243; for MIC Enterococcus faecalis (GC 2691): strain GC 2691; for MIC Enterococcus faecalis (GC 3059): strain GC 3059; for MIC Enterococcus faecalis (GC 4552): strain GC 4552; for MIC Enterococcus faecalis (GC 4553): strain GC 4553; for MIC Enterococcus faecalis (GC 4554): strain GC 4554; for MIC Enterococcus faecium (GC 4556): strain GC 4556; for MIC Enterococcus faecium (GC 4557): strain GC 4557; for MIC Enterococcus avium (GC 4558): strain GC 4558; for MIC Enterococcus faecalis (GC 6189): strain GC 6189
Summary of the method: as §1

Escherichia coli = test: as above; format: cell-based
Summary of the method: as §1

Staphylococcus sp. = test: as above; format: cell-based; conditions: broth dilution, 18 hours at 35° C.; for MIC Staphylococcus aureus (GC 1131): strain GC 1131
Summary of the method: as §1

Cc1ccc(Oc2ccc(C3OCC4OC(OC5C(CO)OC(Oc6ccc(CC7NC(=O)C(C(C)c8ccccc8)NC(=O)CNC(=O)C(CO)NC(=O)C(C(O)C8CNC(=N)N8C8OC(CO)C(O)C(O)C8O)NC(=O)C(C(O)C8CNC(=N)N8)NC7=O)cc6)C(O)C5O)C(O)C(O)C4O3)cc2)cc1 (stereo not drawn) [Example 174, Cyclo[glycyl-β-methylphenylalanyl-O-[4-O-[4,6-O-[4-(4-methylphenoxy)benzylidene]hexopyranosyl]hexopyranosyl]tyrosyl-3-(2-iminoimidazolidin-4-yl)seryl-3-(3-hexopyranosyl-2-iminoimidazolidin-4-yl)serylseryl]]
median effective dose (ED50), Staphylococcus aureus-SMITH (GC 4543) [1]: 0.08 mg/kg | MIC Streptococcus pneumoniae (ATCC 6301) (Streptococcus sp.; inoculum 5×10^5 CFU/mL): <0.06 µg/mL | MIC Streptococcus pneumoniae (GC 1894) (Streptococcus sp.; inoculum 5×10^5 CFU/mL): <0.06 µg/mL | MIC Streptococcus pyogenes (GC 4563) (Streptococcus sp.; inoculum 5×10^5 CFU/mL): <0.06 µg/mL | MIC Streptococcus agalactiae (GC 4564) (Streptococcus sp.; inoculum 5×10^5 CFU/mL): <0.06 µg/mL | MIC Streptococcus pneumoniae (GC 4565) (Streptococcus sp.; inoculum 5×10^5 CFU/mL): <0.06 µg/mL | MIC Streptococcus pneumoniae (ATCC 6301) (Streptococcus sp.): <0.06 µg/mL | MIC Streptococcus pneumoniae (GC 1894) (Streptococcus sp.): <0.06 µg/mL | MIC Streptococcus pyogenes (GC 4563) (Streptococcus sp.): <0.06 µg/mL | MIC Streptococcus agalactiae (GC 4564) (Streptococcus sp.): <0.06 µg/mL | MIC Streptococcus pneumoniae (GC 4565) (Streptococcus sp.): <0.06 µg/mL | MIC Enterococcus faecalis (ATCC 29212) (Enterococcus sp.; inoculum 5×10^5 CFU/mL): 2 µg/mL (≈ 1.34 µM) | MIC Enterococcus faecalis (GC 2242) (Enterococcus sp.; inoculum 5×10^5 CFU/mL): 2 µg/mL (≈ 1.34 µM) | MIC Enterococcus faecium (GC 2243) (Enterococcus sp.; inoculum 5×10^5 CFU/mL): 1 µg/mL (≈ 0.671 µM) | MIC Enterococcus faecalis (GC 2691) (Enterococcus sp.; inoculum 5×10^5 CFU/mL): 2 µg/mL (≈ 1.34 µM) | MIC Enterococcus faecalis (GC 3059) (Enterococcus sp.; inoculum 5×10^5 CFU/mL): 2 µg/mL (≈ 1.34 µM) | MIC Enterococcus faecalis (GC 4552) (Enterococcus sp.; inoculum 5×10^5 CFU/mL): 1 µg/mL (≈ 0.671 µM) | MIC Enterococcus faecalis (GC 4553) (Enterococcus sp.; inoculum 5×10^5 CFU/mL): 1 µg/mL (≈ 0.671 µM) | MIC Enterococcus faecalis (GC 4554) (Enterococcus sp.; inoculum 5×10^5 CFU/mL): 1 µg/mL (≈ 0.671 µM) | MIC Enterococcus faecium (GC 4556) (Enterococcus sp.; inoculum 5×10^5 CFU/mL): 1 µg/mL (≈ 0.671 µM) | MIC Enterococcus faecium (GC 4557) (Enterococcus sp.; inoculum 5×10^5 CFU/mL): 2 µg/mL (≈ 1.34 µM) | MIC Enterococcus avium (GC 4558) (Enterococcus sp.; inoculum 5×10^5 CFU/mL): 2 µg/mL (≈ 1.34 µM) | MIC Enterococcus faecalis (GC 6189) (Enterococcus sp.; inoculum 5×10^5 CFU/mL): 2 µg/mL (≈ 1.34 µM) | MIC Enterococcus faecalis (ATCC 29212) (Enterococcus sp.): 2 µg/mL (≈ 1.34 µM) | MIC Enterococcus faecalis (GC 2242) (Enterococcus sp.): 2 µg/mL (≈ 1.34 µM) | MIC Enterococcus faecium (GC 2243) (Enterococcus sp.): 1 µg/mL (≈ 0.671 µM) | MIC Enterococcus faecalis (GC 2691) (Enterococcus sp.): 2 µg/mL (≈ 1.34 µM) | MIC Enterococcus faecalis (GC 3059) (Enterococcus sp.): 2 µg/mL (≈ 1.34 µM) | MIC Enterococcus faecalis (GC 4552) (Enterococcus sp.): 1 µg/mL (≈ 0.671 µM) | MIC Enterococcus faecalis (GC 4553) (Enterococcus sp.): 1 µg/mL (≈ 0.671 µM) | MIC Enterococcus faecalis (GC 4554) (Enterococcus sp.): 1 µg/mL (≈ 0.671 µM) | MIC Enterococcus faecium (GC 4556) (Enterococcus sp.): 1 µg/mL (≈ 0.671 µM) | MIC Enterococcus faecium (GC 4557) (Enterococcus sp.): 2 µg/mL (≈ 1.34 µM) | MIC Enterococcus avium (GC 4558) (Enterococcus sp.): 2 µg/mL (≈ 1.34 µM) | MIC Enterococcus faecalis (GC 6189) (Enterococcus sp.): 2 µg/mL (≈ 1.34 µM) | MIC Escherichia coli (ATCC 25922) (Escherichia coli; strain ATCC 25922, 18 hours at 35° C.): >64 µg/mL | MIC Escherichia coli (GC 4559) (Escherichia coli; strain GC 4559, 18 hours at 35° C.): >64 µg/mL | MIC Escherichia coli (GC 4560) (Escherichia coli; strain GC 4560, 18 hours at 35° C.): 4 µg/mL (≈ 2.69 µM) | MIC Staphylococcus aureus (GC 1131) (Staphylococcus sp.; inoculum 5×10^5 CFU/mL): 1 µg/mL (≈ 0.671 µM) | MIC Staphylococcus aureus (ATCC 29213) (Staphylococcus sp.; strain ATCC 29213): 2 µg/mL (≈ 1.34 µM) | MIC Staphylococcus aureus (GC 1131) (Staphylococcus sp.): 1 µg/mL (≈ 0.671 µM) | MIC Staphylococcus aureus (GC 3051) (Staphylococcus sp.; strain GC 3051): 2 µg/mL (≈ 1.34 µM) | MIC Staphylococcus aureus (GC 3053) (Staphylococcus sp.; strain GC 3053): 2 µg/mL (≈ 1.34 µM) | MIC Staphylococcus aureus (GC 4541) (Staphylococcus sp.; strain GC 4541): 2 µg/mL (≈ 1.34 µM) | MIC Staphylococcus aureus (GC 4542) (Staphylococcus sp.; strain GC 4542): 2 µg/mL (≈ 1.34 µM) | MIC Staphylococcus aureus (GC 4544) (Staphylococcus sp.; strain GC 4544): 1 µg/mL (≈ 0.671 µM) | MIC Staphylococcus aureus (GC 4545) (Staphylococcus sp.; strain GC 4545): 1 µg/mL (≈ 0.671 µM) | MIC Staphylococcus aureus-SMITH (GC 4543) (Staphylococcus sp.; strain GC 4543): 1 µg/mL (≈ 0.671 µM) | MIC Staphylococcus haemolyticus (GC 4546) (Staphylococcus sp.; strain GC 4546): 2 µg/mL (≈ 1.34 µM) | MIC Coagulase Negative Staphylococcus (GC 4547) (Staphylococcus sp.; strain GC 4547): 2 µg/mL (≈ 1.34 µM) | MIC Coagulase Negative Staphylococcus (GC 4548) (Staphylococcus sp.; strain GC 4548): 0.5 µg/mL (≈ 0.336 µM) | MIC Coagulase Negative Staphylococcus (GC 4549) (Staphylococcus sp.; strain GC 4549): 1 µg/mL (≈ 0.671 µM) | MIC Coagulase Negative Staphylococcus (GC 4551) (Staphylococcus sp.; strain GC 4551): 1 µg/mL (≈ 0.671 µM) | MIC Coagulase Negative Staphylococcus (GC 6257) (Staphylococcus sp.; strain GC 6257): 0.5 µg/mL (≈ 0.336 µM)
